We go through 33 compounds from patent US12509451B2, “Heteroaryl amide inhibitors of CD38” (NAPA THERAPEUTICS LTD., priority 2020, dated 2025).

Assay [1] has as its target T1, recombinant human CD38 Protein (Homo sapiens, UniProt P28907).
T1 construct: purchased R&D System
T1 sequence (P28907 1-300): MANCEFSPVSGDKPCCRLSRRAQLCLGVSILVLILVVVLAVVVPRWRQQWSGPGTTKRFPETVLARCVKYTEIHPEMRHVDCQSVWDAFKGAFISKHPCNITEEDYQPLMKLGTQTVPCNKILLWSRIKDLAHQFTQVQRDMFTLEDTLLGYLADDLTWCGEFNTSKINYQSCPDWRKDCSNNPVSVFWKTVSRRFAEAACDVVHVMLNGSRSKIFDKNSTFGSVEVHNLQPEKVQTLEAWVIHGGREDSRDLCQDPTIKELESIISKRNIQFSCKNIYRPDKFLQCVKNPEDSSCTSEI
Description: Fluorescence-based NAD+ hydrolase activity assay with human recombinant CD38 protein (Assay 3). In kind it is biochemical. The conditions noted are these: read-out: Assay 3 Arithmetic mean IC50. As to the method: This protocol was modified from the following references (Muller et al. (1983); (Schultz et al. (2018); (Matalonga et al. (2017); and de Oliveira et al. (2018), supra.
NAD+ hydrolase activity of the human recombinant CD38 protein treated with test compounds was measured using a fluorescence-based assay. Briefly, recombinant human CD38 Protein (R&D System) was resuspended in 44 μl/well of Sucrose-Tris Buffer (Sucrose 0.25 M, Tris pH 7.4 40 mM) and plated in a 96-well black plate (CORNING) at a density of 10 ng/well.
Each test compound was received in a powder state and dissolved in DMSO as a 25 mM stock solution. Each test compound was serially diluted in order to generate a dose-response curve. The dilution series of each test compound in DMSO was prepared at 50× the concentrations to be assayed. Each test compound was diluted to generate a 5-fold dilution series of 8 concentrations from 20 μM to 0.256 nM in order to assay 8 final concentrations ranging from ranging from 400 nM to 25.6 pM. One μl of the 50× concentration compound series was added to each well of the plate containing 10 ng protein in Sucrose-Tris buffer.
The reaction was started adding nicotinamide 1,N^6-etheno-adenine dinucleotide (Sigma Aldrich) to reach a final concentration of 80 µM. The samples were excited at 321-15 nm and the emission of fluorescence was measured at 410-20 nm at 37° C. every minute for 1 hr in a Clariostar® microplate reader (BMG LABTECH). NAD+ hydrolase activity was calculated as the slope of the linear portion of the fluorescence-time curve using the MARS data analysis software (BMG LABTECH). The data were uploaded in the Collaborative Drug Design (CDD) Software and for each compound the IC50 was calculated by the software. […] For each plate, the z-factor was also calculated as a plate quality using the CDD software.

Assay [2] concerns the target T2, recombinant mouse CD38 Protein (Mus musculus, UniProt P56528).
T2 construct: purchased R&D System
T2 sequence (P56528 1-304): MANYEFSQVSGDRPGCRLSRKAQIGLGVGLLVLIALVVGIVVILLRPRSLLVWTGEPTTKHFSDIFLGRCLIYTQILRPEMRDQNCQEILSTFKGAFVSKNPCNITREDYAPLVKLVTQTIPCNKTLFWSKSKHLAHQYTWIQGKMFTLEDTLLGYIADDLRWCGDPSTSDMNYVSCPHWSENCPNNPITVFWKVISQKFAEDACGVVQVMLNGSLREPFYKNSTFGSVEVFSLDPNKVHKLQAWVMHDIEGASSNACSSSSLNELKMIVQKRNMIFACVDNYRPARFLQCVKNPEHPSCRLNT
Description: Fluorescence-based NAD+ hydrolase activity assay with mouse recombinant CD38 protein (Assay 5). To be noted: read-out: Assay 5 Arithmetic mean IC50. In kind it is biochemical. As to the method: This protocol was modified from the following references: Muller et al. (1983); Schultz et al. (2018); Matalonga et al. (2017); and de Oliveira et al. (2018), supra.
NAD+ hydrolase activity of the mouse recombinant CD38 protein treated with test compounds was measured using a fluorescence-based assay. Briefly, recombinant mouse CD38 Protein (R&D System) was resuspended in 44 μl/well of Sucrose-Tris Buffer (Sucrose 0.25 M, Tris pH 7.4 40 mM) and plated in a 96 well black plate (CORNING) at a density of 2.5 ng/well.
Each test compound was received in a powder state and dissolved in DMSO as a 25 mM stock solution. Each test compound was serially diluted in order to generate a dose-response curve. The dilution series of each test compound in DMSO was prepared at 50 times the concentrations to be assayed. Each test compound was diluted to generate a 5-fold dilution series of 8 concentrations from 20 μM to 0.256 nM in order to assay 8 final concentrations ranging from 400 nM to 25.6 pM. One μl of the 50× concentration compound series was added to each well of the plate containing 2.5 ng of protein in Sucrose-Tris buffer.
Each plate had the following intra plate controls: 3 wells containing cells treated with vehicle only (DMSO), 3 wells of cells treated with the reference compounds 78c at a final concentration of 50 nM and 2 wells containing only Sucrose-Tris buffer (used as a background value).
The reaction was started adding nicotinamide 1,N^6-etheno-adenine dinucleotide (Sigma Aldrich) to reach a final concentration of 80 µM. The samples were excited at 321-15 nm and the emission of fluorescence was measured at 410-20 nm at 37° C. every minute for 1 hr in a Clariostar Microplate® reader (BMG LABTECH). NAD+ hydrolase activity was calculated as the slope of the linear portion of the fluorescence-time curve using the MARS data analysis software (BMG LABTECH). The data were uploaded in the Collaborative Drug Design (CDD) Software and for each compound the IC50 was calculated by the software. Each compound was tested in 3 independent experiments on 3 separate days to establish the reproducibility of the results. For each plate, the z-factor was also calculated as a plate quality using the CDD software.

pIC50: −log10 of the molar value.

As for `CNC(=O)c1ccc(NC(=O)c2cccc(-n3ccnc3)n2)cn1` [Compound 2], the pIC50 in assay [1] and in assay [2] was > 9.00 in each case.

For `NC(=O)c1ccc(NC(=O)c2cccc(-n3ccnc3)n2)cn1` [Compound 3], the pIC50 in assay [1] and in assay [2] was 7.30 to 9.00 throughout.

`Cc1cc(NC(=O)c2cccc(-n3ccnc3)n2)cc(C)n1` [Compound 7]: the pIC50 (usually the IC50 on a negative log10 scale, so that one unit is a factor of ten) was 7.30 to 9.00 in assay [1] and > 9.00 in assay [2].

For the compound `O=C(Nc1ccnc(F)c1)c1cccc(-n2ccnc2)n1` [Compound 8], the pIC50 in assay [1] and in assay [2] was 7.30 to 9.00 in each case.

As for `O=C(Nc1ccc(C(F)(F)F)nc1)c1cccc(-n2ccnc2)n1` [Compound 9], the negative-log IC50 (pIC50) in assay [1] and in assay [2] was 7.30 to 9.00 throughout.

On to `Cc1cc(NC(=O)c2cccc(-n3ccnc3)n2)ccn1` [Compound 11], for which the negative-log IC50 (pIC50) in assay [1] and in assay [2] was 7.30 to 9.00 throughout.

For `COc1cc(NC(=O)c2cccc(-n3ccnc3)n2)ccn1` [Compound 12], the negative-log IC50 (pIC50) in assay [1] and in assay [2] was 7.30 to 9.00 each time.

Consider `O=C(Nc1ccncc1)c1cccc(-n2ccnc2)n1` [Compound 13], for which the negative-log IC50 (pIC50) in assay [1] and in assay [2] was 7.30 to 9.00 in each case.

As for `Cc1ccc(NC(=O)c2cccc(-n3ccnc3)n2)cn1` [Compound 14], the pIC50 in assay [1] and in assay [2] was 7.30 to 9.00 each time.

Take `CC(=O)N(C)c1ccc(NC(=O)c2cccc(-n3ccnc3)n2)cn1` [Compound 15]: the negative logarithm of the IC50 (pIC50) in assay [1] and in assay [2] was 7.30 to 9.00 in each case.

Regarding `CC(=O)Nc1ccc(NC(=O)c2cccc(-n3ccnc3)n2)cn1` [Compound 16], the pIC50 in assay [1] and in assay [2] was 7.30 to 9.00 throughout.

As to `COc1ccc(NC(=O)c2cccc(-n3ccnc3)n2)cn1` [Compound 18], the pIC50 in assay [1] and in assay [2] was 7.30 to 9.00 throughout.

With `O=C(Nc1cccnc1)c1cccc(-n2ccnc2)n1` [Compound 20], the negative logarithm of the IC50 (pIC50) in assay [1] and in assay [2] was 7.30 to 9.00 each time.

Regarding `O=C(Nc1ccc(F)nc1)c1cccc(-n2ccnc2)n1` [Compound 22], the pIC50 in assay [1] and in assay [2] was 7.30 to 9.00 each time.

Take `O=C(Nc1ccncn1)c1cccc(-n2ccnc2)n1` [Compound 24]: the pIC50 in assay [1] and in assay [2] was 7.30 to 9.00 in each case.

Take `COC(=O)c1ccc(NC(=O)c2cccc(-n3ccnc3)n2)cn1` [Compound 27]: the pIC50 in assay [1] and in assay [2] was 7.30 to 9.00 throughout.

Take `O=C(Nc1ccnc(C(F)(F)F)c1)c1cccc(-n2ccnc2)n1` [Compound 28]: the pIC50 in assay [1] and in assay [2] was 7.30 to 9.00 each time.

For `O=C(Nc1ccnc(C(F)(F)F)c1)c1cc(OCc2ccccc2)cc(-n2ccnc2)n1` [Compound 29, 4-(benzyloxy)-6-(1H-imidazol-1-yl)-N-[2-(trifluoromethyl)pyridin-4-yl]pyridine-2-carboxamide], the pIC50 in assay [1] was 7.30 to 9.00; in assay [2], > 9.00.

Consider `O=C(Nc1ccnc(C(F)(F)F)c1)c1cc(OCC2CCOCC2)cc(-n2ccnc2)n1` [Compound 30, 6-(1H-imidazol-1-yl)-4-((tetrahydro-2H-pyran-4-yl)methoxy)-N-(2-(trifluoromethyl)pyridin-4-yl)picolinamide], for which the results for the negative-log IC50 (pIC50) in assay [1] and in assay [2] were 7.30 to 9.00 and > 9.00, respectively.

Turning to `COCCOc1cc(C(=O)Nc2ccnc(C(F)(F)F)c2)nc(-n2ccnc2)c1` [Compound 31, 6-(1H-imidazol-1-yl)-4-(2-methoxyethoxy)-N-(2-(trifluoromethyl)pyridin-4-yl)picolinamide], the pIC50 in assay [1] is 7.30 to 9.00; in assay [2] it was > 9.00.

Regarding `O=C(Nc1ccnc(C(F)(F)F)c1)c1cc(OC2CC2)cc(-n2ccnc2)n1` [Compound 32, 4-cyclopropoxy-6-(1H-imidazol-1-yl)-N-(2-(trifluoromethyl)pyridin-4-yl)picolinamide], the values for the negative logarithm of the IC50 (pIC50) in assay [1] and in assay [2] were > 9.00 and 6.00 to 7.29, respectively.

In the case of `CN(C)CCOc1cc(C(=O)Nc2ccnc(C(F)(F)F)c2)nc(-n2ccnc2)c1` [Compound 33], the negative-log IC50 (pIC50) in assay [1] and in assay [2] was > 9.00 in each case.

For `CC1(Oc2cc(C(=O)Nc3ccnc(C(F)(F)F)c3)nc(-n3ccnc3)c2)COC1` [Compound 34, 6-(1H-imidazol-1-yl)-4-((3-methyloxetan-3-yl)oxy)-N-(2-(trifluoromethyl)pyridin-4-yl)picolinamide], the pIC50 was 7.30 to 9.00 in assay [1] and > 9.00 in assay [2].

Turning to `COc1cc(C(=O)Nc2ccnc(C(F)(F)F)c2)nc(-n2ccnc2)c1` [Compound 35, 6-(1H-imidazol-1-yl)-4-methoxy-N-(2-(trifluoromethyl)pyridin-4-yl)picolinamide], the negative logarithm of the IC50 (pIC50) in assay [1] was 7.30 to 9.00; in assay [2], > 9.00.

In the case of `COc1cc(C(=O)Nc2cccnc2)nc(-n2ccnc2)c1` [Compound 36], the negative-log IC50 (pIC50) in assay [1] and in assay [2] was 7.30 to 9.00 each time.

On to `COc1cc(C(=O)Nc2ccnc(C(F)(F)F)c2)nc(-n2ccnc2)n1` [Compound 37, 2-(1H-imidazol-1-yl)-6-methoxy-N-(2-(trifluoromethyl)pyridin-4-yl)pyrimidine-4-carboxamide], for which the pIC50 in assay [1] and in assay [2] was > 9.00 each time.

Consider `CCOc1cc(C(=O)Nc2ccnc(C(F)(F)F)c2)nc(-n2ccnc2)n1` [Compound 38], for which the negative-log IC50 (pIC50) in assay [1] and in assay [2] was > 9.00 each time.

Take `COCCOc1cc(C(=O)Nc2ccnc(C(F)(F)F)c2)nc(-n2ccnc2)n1` [Compound 39, 2-(1H-imidazol-1-yl)-6-(2-methoxyethoxy)-N-(2-(trifluoromethyl)pyridin-4-yl)pyrimidine-4-carboxamide]: the pIC50 in assay [1] and in assay [2] was > 9.00 each time.

As to `O=C(Nc1ccnc(C(F)(F)F)c1)c1cc(OC2CC2)nc(-n2ccnc2)n1` [Compound 40], the negative logarithm of the IC50 (pIC50) was 7.30 to 9.00 in assay [1] and > 9.00 in assay [2].

In the case of `Cn1cncc1-c1cccc(C(=O)Nc2cccnc2)n1` [Compound 42, 6-(1-methyl-1H-imidazol-5-yl)-N-(pyridin-3-yl)picolinamide], the pIC50 in assay [1] and in assay [2] was 7.30 to 9.00 in each case.

Consider `Cn1cncc1-c1cccc(C(=O)Nc2ccc(C(F)(F)F)nc2)n1` [Compound 43], for which the negative-log IC50 (pIC50) in assay [1] and in assay [2] was 7.30 to 9.00 in each case.

As for `Cc1cc(C(=O)Nc2ccncc2)nc(-c2nccn2C)c1` [Compound 45], the negative logarithm of the IC50 (pIC50) was 7.30 to 9.00 in assay [1] and > 9.00 in assay [2].

In the case of `Cn1ccnc1-c1cccc(C(=O)Nc2ccc(C(F)(F)F)nc2)n1` [Compound 47], the pIC50 in assay [1] and in assay [2] was 7.30 to 9.00 each time.
